Reference: US20150104426A1, “SKIN-CARE AGENT CONTAINING PLEUROTUS FERULAE FRUIT BODY EXTRACT OR PLEUROTUS FERULAE MYCELIUM EXTRACT” (AMI Cosmetic Co., Ltd., priority 2013, published 2015)

Experiments:
B16F1 melanin cells = experiment: Inhibition of melanin synthesis in B16F1 melanin cells; type: cell-based, mice; settings: 0.2 wt %; B16F1, 72 hours
Experimental: B16F1 melanocytes used for the present test example were cell lines derived from mice, which secrete a black pigment called “melanin”. The effect on inhibition of melanin synthesis of B16F1 melanin cells was measured as follows. […] After culturing for 72 hours, the cells were removed from trypsin-EDTA, counted and collected by centrifugation. Melanin in cells was assayed using a slightly modified version of Lotan's method (R Lotan and D Lotan, Cancer Res, 40: 3345-3350, 1980). Cell pellets were washed with PBS once and homogenized, 1 mL of a buffer solution (50 mM sodium phosphate, pH 6.8, 1% Triton X-100, 2 mM PMSF) was added to the cells, and the cells were crushed by vortex for 5 minutes. Melanin extracted by addition of 1N NaOH (10% DMSO) to a cell residue obtained by centrifugation (3,000 rpm, 10 minutes) was dissolved, absorbance of melanin at 405 nm was measured using a microplate reader, melanin was assayed, and inhibition of melanin production (%) of the sample was measured. In addition, a group not treated with the Pleurotus ferulae fruiting body extract, the Pleurotus ferulae mycelium extract or the Pleurotus ferulae mycelium culture was used as a control group, arbutin well-known as a whitening agent was used as a positive control group, and inhibition of melanin synthesis (%) by B16F1 melanin cells was calculated in accordance with Equation 4. […]

tyrosinase = experiment: Inhibition of tyrosinase activity; type: biochemical, mushrooms; settings: 0.2 wt %; L-tyrosine substrate
Experimental: Tyrosinase is an enzyme which facilitates oxidation of a substance called “tyrosine” in vivo and aids in production of melanin. Tyrosinase was isolated from mushrooms and purified, and was obtained from Sigma Aldrich Corp. A 0.1 mg/mL solution of L-tyrosine as a substrate in a 0.05 M sodium phosphate buffer solution (pH 6.8) was prepared. […] The test tube containing the reaction solution was quenched in ice to stop the reaction and transmissivity at a wavelength of 475 nm was measured using a spectrophotometer. A group treated with 0.5 mL of a buffer solution, instead of the Pleurotus ferulae fruiting body extract, the Pleurotus ferulae mycelium extract or the Pleurotus ferulae mycelium culture was used as a control group, and arbutin, a well-known whitening agent, was used as a positive control group. In addition, inhibition of tyrosinase activity by the respective samples were calculated in accordance with the following Equation 3. Inhibition of tyrosinase activity (%)=100−[(absorbance of reference group/absorbance of control group)]×100 Equation 3

[1] = Antioxidative effect, NBT method (xanthine/xanthine oxidase); type: biochemical; settings: sample 0.1 wt %
Experimental: In accordance with the NBT method, active oxygen is produced by xanthine and xanthine oxidase, and absorbance at a wavelength of 560 nm of a blue substance produced upon reaction between the active oxygen and nitro blue tetrazolium (NBT) is measured. In the present test example, an active oxygen scavenge rate was measured in accordance with the following method. In addition, BHT, a well-known antioxidant, was used as a positive control group.
2.4 mL of 0.05M sodium carbonate (Na2CO3), 0.1 mL of a 3 mM xanthine solution, 0.1 mL of a 3 mM EDTA solution, 0.1 mL of a BSA solution and 0.1 mL of a 0.72 mM NBT solution were added to vials, 0.025, 0.05, 0.1 and 0.25% by weight of sample solutions were added respectively thereto, followed by allowing to stand at 25° C. for 10 minutes. After standing, 0.1 mL of a xanthine oxidase solution was added to the each solution which was then rapidly stirred and cultured at 25° C. for 20 minutes. 0.1 mL of a 6 mM copper chloride (CuCl2) solution was added to the culture solution to stop the reaction. Absorbance (St) at 560 nm was measured. […] Absorbance (Bt) was measured in the same manner as above. Absorbance (Bo) of the blank of the sample solution was measured in the same manner as above using distilled water instead of the xanthine oxidase solution. In addition, active oxygen scavenge rate (%) was calculated by the following Equation 1. […]

[2] = Antioxidative effect, DPPH method; type: biochemical; settings: sample 0.1 wt %
Experimental: The DPPH method measures free radical scavenge activity based on reduction power using a free radical, called “DPPH (2,2-di(4-tert-octylphenyl)-1-picrylhydrazyl)”. In the present test example, decrease in absorbance caused by reduction of DPPH by a test substance was compared with an absorbance of a blank test solution, and free radical scavenge rate at a wavelength of 560 nm was measured. Measurement was performed as follows. In addition, BHT, a well-known antioxidant, was used as a positive control group.
0.025, 0.05, 0.1 and 0.25% by weight of different concentrations of the Pleurotus ferulae fruiting body extracts, the Pleurotus ferulae mycelium extracts and the Pleurotus ferulae mycelium cultures were prepared and pipetted into on 96-well plates, and DPPH prepared from a 100 μM methanol solution was added thereto such that the total volume of the solution reached 200 μl. The solution was allowed to stand at 37° C. for 30 minutes, absorbance (St) at 560 nm of the solution was measured and free radical scavenge activity (%) was calculated using the following Equation 2.
Free radical scavenge activity (%)=[…]×100 Equation 2 […]

[3] = tested on: Human keratinocytes HaCaT cell line; experiment: Scavenging of active oxygen in cells after UVB (DCFH-DA); type: cell-based; settings: 0.01 wt %, UVB 20 mJ/cm^2
Experimental: A cell line used for the present test example was a Human keratinocytes HaCaT cell line obtained from Dr. Fusenig in the German Cancer Research Center. The cell line was seeded at a density of 2.0×10^4 cells per well into 96-well black plates for fluorescent measurement and cultured in DMEM (Dulbecco's Modified Eagle's Medium, FBS 10%, Gibco, USA) media containing penicillin and streptomycin at 37° C. in an atmosphere containing 5% CO2 for one day. […] Then, after 100 μl of different concentrates of HCSS was added to the test samples, fluorescence of DCF (dichlorofluorescein) initially oxidized with active oxygen was measured using a fluorescence plate reader (Ex: 485 nm, Em: 530 nm). Then, the samples were irradiated with UVB (20 mJ/cm^2), treated with 0.005, 0.01 and 0.02% by weight of the Pleurotus ferulae fruiting body extract, the Pleurotus ferulae mycelium extract and the Pleurotus ferulae mycelium culture and then measured for fluorescence using the fluorescence plate reader (Ex: 485 nm, Em: 530 nm). At this time, epigallocatechin gallate (EGCG) known to have potent antioxidative effects was used as a positive control group.

[4] = tested on: matrix metalloproteinase (MMP-1); experiment: Repression of MMP-1 after ultraviolet irradiation (ELISA); type: cell-based; settings: 0.02 wt %; human dermal fibroblasts, UVA 6.3 J/cm^2, 24 hours
Experimental: After UV irradiation and addition of samples (Pleurotus ferulae fruiting body extract, Pleurotus ferulae mycelium extract or Pleurotus ferulae mycelium culture, retinol), enzyme-linked immunosorbent assay (ELISA) was carried out to measure concentration of matrix metalloproteinase (MMP-1). Human dermal fibroblasts were irradiated with UVA at an energy of 6.3 J/cm^2 in a UV chamber, and conditions of the dose of ultraviolet radiation and culture time which maximize expression of matrix metalloproteinase (MMP-1) in fibroblasts were established through preliminary testing. A negative control group was wrapped with a foil and exposed to UVA environment for the same time. Here, UVA dose was measured using a UV radiometer. The cells during irradiation of UVA were cultured in the medium previously used. After UVA irradiation, the cells were cultured in a fresh medium containing samples for 24 hours and the medium were coated on 96-well plates. […] The cells were reacted with anti-mouse IgG (whole mouse, alkaline phosphatase conjugated) as a secondary antibody for about 60 minutes, and an alkaline phosphatase substrate solution (1 mg/mL ρ-nitrophenyl phosphate in diethanolamine buffer solution) at room temperature for 30 minutes, and absorbance at 405 nm was measured using a microplate reader. […]

type 1 procollagen = experiment: Promotion of type 1 procollagen biosynthesis in fibroblasts; type: cell-based; settings: 0.001 wt %; human dermal fibroblasts, 24 hours
Experimental: Human dermal fibroblasts isolated from infant epidermal tissues were obtained from Modern Tissue Technology (MTT, Korea) and cultured at 1×10^4 cell/cm2 in a DMEM/F-12 (3:1) medium containing 10% fetal bovine serum (FBS). The human dermal fibroblasts grown to about a confluence of 80% were sub-cultured at a split ratio of 1:3 four times and were then used for the testing.
For the test to measure the amount of procollagen, fibroblasts were cultured to a confluence of 90% or more on a 48-well plate, the Pleurotus ferulae fruiting body extract, the Pleurotus ferulae mycelium […], and after 24 hours, the amount of procollagen released in the medium was measured using a procollagen type-1C-peptide EIA kit (MK101, Takara, Japan). In addition, TGF-β was used as a positive control group.

**Q.** For OC[C@H]1O[C@@H](Oc2ccc(O)cc2)[C@H](O)[C@@H](O)[C@@H]1O [Arbutin, arbutin], which “Inhibition of melanin synthesis (%)” value (B16F1 melanin cells) is on record?
**A.** Its value is 55%.

**Q.** And the “Inhibition of tyrosinase activity (%)” value (tyrosinase)?
**A.** The value was 54%.

**Q.** Which “Active oxygen scavenge rate (antioxidative effect, %)” value [1] does the source give for Cc1cc(C(C)(C)C)c(O)c(C(C)(C)C)c1 [BHT] here?
**A.** The value was 89%.

**Q.** What about the “Free radical scavenge rate (antioxidative effect, %)” value [2] of the same compound?
**A.** The value was 85%.

**Q.** Which “Effect of scavenging active oxygen (%)” value [3] does the source give for O=C(O[C@@H]1Cc2c(O)cc(O)cc2O[C@@H]1c1cc(O)c(O)c(O)c1)c1cc(O)c(O)c(O)c1 [EGCG, epigallocatechin gallate] here?
**A.** The value was 45%.

**Q.** With CC1=C(/C=C/C(C)=C/C=C/C(C)=C/CO)C(C)(C)CCC1 [Retinol, retinol] as the compound, how does the “Repression of MMP-1 (%)” value [4] read?
**A.** Its value is 36%.

**Q.** Which “Promotion of procollagen biosynthesis (%)” value (type 1 procollagen) does the source give for TGF-β here?
**A.** Its value is 125%.
